The values that follow come from US6632924B2, “Method of measuring plasma membrane targeting of GLUT4” (Whitehead Institute for Biomedical Research, priority 1999, dated 2003).

In assay [1] the test system is GLUT4 reporter (GLUT4myc7-GFP) in 3T3-L1 cells. As to the kind of experiment: Flow cytometry assay of GLUT4 reporter translocation to the plasma membrane in 3T3-L1 cells. It counts as cell-based, murine. The conditions noted are these: for fold increase in the proportion of total GLUT4 present at the cell surface: insulin 80 nM. As for the experimental part: A GLUT4 translocation assay was carried out as follows: 3T3 L1 preadipocytes were infected with a retrovirus encoding a GLUT4 construct fused to green fluorescent protein (GFP) at its carboxy terminus, and containing seven myc epitope tags in the first exofacial loop. A population of cells expressing a narrow window of green fluorescence was isolated by fluorescence activated cell sorting (FACS). These cells were propagated and differentiated on 10 cm plates, and were reseeded on 6-well dishes the day prior to performing the GLUT4 translocation assay. Cells were serum starved for 3 hours, then stimulated or not with 160 nM insulin for 10 minutes. They were then placed on ice and washed with cold phosphate buffered saline with calcium and magnesium (PBS++). All subsequent steps were done at 4° C. Cells were incubated with anti-myc antibody (9E10), washed briefly with PBS++, and incubated with phycoerythrin-conjugated F(ab)2 antimouse IgG. Cells were washed with PBS++, resuspended using EDTA, and analysed by two color flow cytometry.
One protocol for carrying out the method of assessing translocation of modified GLUT4 is as follows: 3T3L1 cells are maintained at a subconfluent density, infected with retrovirus expression vectors which include DNA encoding modified GLUT4 and induced to differentiate into adipocytes. After being cultured (e.g., for 8-12 days) under appropriate conditions, the cells are reseeded onto plates (e.g., 6-well plates) and serum starved (e.g., for 3 or more hours). Some cells are stimulated by insulin (e.g., 160 nM, 10 minutes), placed on ice and washed at 4° C. with PBS++ (phosphate buffered saline containing calcium and magnesium). Anti-myc antibody (9E10, available from the American Type Culture Collection) is added to the cells ([…], 1 ½ hours, 4° C.). The cells are again washed with PBS++ at 4° C. and an […] labeled with a red fluorophore (R-phycoerythrin (R-PE) conjugated antimouse IgG, 50 μg/ml, 45 minutes, 4° C.) is added. Another washing with PBS++(4° C.) is carried out, the cells are suspended with EDTA and FACS (fluorescences activated cell scanning/sorting) is carried out.
Confluent cells were reseeded on the indicated day of differentiation to six well plates (Coming, Costar #3506) one day before use in experiments, and were starved in DMEM without fetal bovine serum for at least 3 hours before insulin stimulation. Insulin was used at 80 nM or 160 nM; no difference was noted between these concentrations in either 3T3-L1 or CHO cells. After treatment in the presence or absence of insulin for the times indicated in each figure, cells were quickly transferred to 4° C. and washed with cold phosphate buffered saline containing 0.9 mM Ca^++ and 0.5 mM Mg^++ (PBS++). All subsequent steps were carried out at 4° C., and staining of externalized myc epitope was done on adherent cells. Cells were incubated with a 1:200 dilution of anti-myc (9E10) ascites in PBS++, 2% bovine serum albumin, 4% donkey serum for 1.5 hours. Cells were then washed twice in PBS++, for 5 min. each time. They were then incubated 45 min. in 12.5 µg/ml R-phycoerythrin conjugated donkey F(ab′)2 anti-mouse IgG secondary antibody, diluted in PBS++, 2% BSA, 4% donkey serum. Cells were washed three times with PBS++, for 10 min. each time, and were resuspended by gentle scraping in PBS++, 2% BSA for flow cytometry. […]

The subject of assay [2] is GLUT4 reporter in CHO cells. Nature of the assay: Flow cytometry assay of GLUT4 reporter translocation to the plasma membrane in CHO cells. It is filed as cell-based, Chinese hamster. As for the experimental part:
CHO-K1 cells stably expressing the murine ecotropic retroviral receptor were kindly provided by David Hirsch, Roger Lawrence, and Monty Kreiger (Massachusetts Institute of Technology, Cambridge Mass.), and were maintained in Han's F-12 medium with 10% fetal bovine serum, 2 mM glutamine, 100 U/ml penicillin, and 0.1 mg/ml streptomycin (Baker, B. W., et al., (1992)). To use identical experimental conditions in CHO and 3T3-L1 cells, CHO cells were placed in the same medium used for 3T3-L1 adipocytes two days before assays of GLUT4 trafficking. Phoenix ecotropic retroviral packaging cells were a gift from Garry Nolan (Stanford University Medical Center) and VE23 ecotropic retroviral packaging cells were a gift from Merav Socolovsky (Whitehead Institute, Cambridge Mass.) (Kinsella, and Nolan, Hum Gene Ther. 7:1405-1413 (1996); Socolovsky, M., et al. J Biol Chem. 272:14009-14012 (1997)). Both retroviral packaging cell lines were cultured in DMEM, 10% fetal bovine serum, glutamine, penicillin and streptomycin as above.
Confluent cells were reseeded on the indicated day of differentiation to six well plates (Coming, Costar #3506) one day before use in experiments, and were starved in DMEM without fetal bovine serum for at least 3 hours before insulin stimulation. Insulin was used at 80 nM or 160 nM; no difference was noted between these concentrations in either 3T3-L1 or CHO cells. After treatment in the presence or absence of insulin for the times indicated in each figure, cells were quickly transferred to 4° C. and washed with cold phosphate buffered saline containing 0.9 mM Ca^++ and 0.5 mM Mg^++ (PBS++). All subsequent steps were carried out at 4° C., and staining of externalized myc epitope was done on adherent cells. Cells were incubated with a 1:200 dilution of anti-myc (9E10) ascites in PBS++, 2% bovine serum albumin, 4% donkey serum for 1.5 hours. Cells were then washed twice in PBS++, for 5 min. each time. They were then incubated 45 min. in 12.5 µg/ml R-phycoerythrin conjugated donkey F(ab′)2 anti-mouse IgG secondary antibody, diluted in PBS++, 2% BSA, 4% donkey serum. Cells were washed three times with PBS++, for 10 min. each time, and were resuspended by gentle scraping in PBS++, 2% BSA for flow cytometry. For experiments involving insulin removal, cells were chilled as above after insulin stimulation, then washed twice with 5 mM sodium acetate, 150 mM NaCl, pH 4.0 (Yang, J., et al., J Biol Chem. 267:1039310399 (1992); Kao, A. W., et al., J Biol Chem. 273:25450-25457 (1998)). Cells were rewarmed in 37° C. DMEM for the times indicated, restimulated or not with insulin, and then returned to 4° C. and chilled with cold PBS++ before staining as above.
Flow cytometry was done on FACScan or FACSCalibur cytometers (Becton-Dickinson). Appropriate compensation between the FL1 and FL2 channels was set using uninfected (GFP-negative) cells or cells stained with PE only (e.g. using a PE-conjugated anti-transferrin receptor antibody; Pharmingen). […] For each sample, data from ≧10,000 cells were collected. Median fluorescence intensities were used for quantitation, since this measure of central tendency is least sensitive to outliers. For each sample, the PE and GFP fluorescence specifically attributable to the presence of the GLUT4 reporter were determined by subtracting background fluorescences, measured using control unstained cells and cells not expressing the reporter, respectively.
Whether this recycling mechanism is present in an unrelated cell type was also assessed. This was done by infecting Chinese Hamster Ovary (CHO) cells expressing the murine ecotropic retroviral receptor with a retrovirus carrying the GLUT4 reporter, and using FACS to isolate cells falling within a narrow range of GFP fluorescence intensities. CHO cells are smaller and have less autofluorescence than 3T3-L1 adipocytes or fibroblasts. […]
Background: Flow cytometry measures light scatter and fluorescence of single cells or particles in a stream.

The subject of assay [3] is GLUT4myc-GFP in 3T3-L1 adipocytes. Nature of the assay: Time-lapse video fluorescence microscopy of GLUT4myc-GFP in 3T3-L1 adipocytes. The conditions noted are these: 3T3-L1 adipocyte; 2.5, 5 and 10 minutes after insulin. It counts as cell-based, murine. As for the experimental part:
Time lapse video fluorescence microscopy was performed using a Nikon Diaphot 300 inverted microscope as described (Smith, G. A., et al., J Cell Biol. 135:647-660 (1996)). 3T3-L1 adipocytes expressing GLUT4myc-GFP were reseeded to 25 mm round coverslips and were incubated in serum-free DMEM for at least three hours before microscopy. Cells were maintained at 37° C. during microscopy using an aluminum chamber mounted on the stage and connected to a circulating waterbath. Images were acquired every 15 sec using a Hammamatsu CCD camera and Metamorph software (Universal Imaging Corp., West Chester, Pa.).
The GLUT4 reporter in a murine retroviral vector was used to infect 3T3-L1 fibroblasts. The infected cells underwent normal adipose differentiation (see below), and we took several approaches to confirm that the GLUT4 reporter traffics appropriately. […] In the absence of insulin, GFP fluorescence is present in the perinuclear pattern that is characteristic of GLUT4, as well as in punctate structures near the plasma membrane and throughout the cytoplasm. Lipid droplets are present in the cytoplasm, and are seen as discrete areas of reduced fluorescence intensity.

The subject of another assay is GLUT4 in adipocytes. The conditions noted are these: ≦10% in the absence of insulin; cited from earlier work.
[4] abbreviates: CHO cells in DMEM, 80 nM insulin.

Consider insulin, for which the “fold increase in the proportion of total GLUT4 present at the cell surface” value in assay [1] (3T3-L1 adipocytes, 10 min) was 5.0 fold; in assay [1] (confluent 3T3-L1 fibroblasts, 5 min) it was 4.4 fold; in assay [2] (confluent CHO cells, insulin 80 nM, 8 min) it was 3.5 fold. Further, the “difference in response between 80 nM and 160 nM insulin” value in assay [1] (3T3-L1 cells) and in assay [2] (CHO cells) was “no difference” in each case. Moreover, the “fall of the fraction of GLUT4 on the plasma membrane after the peak” value in assay [1] (all stages of 3T3-L1 differentiation, 80 nM insulin) was 30% to 40%. Also, the “average maximal increase in the proportion of GLUT4 at the cell surface” value in assay [1] (mature (Day 8 and 10) 3T3-L1 adipocytes, 80 nM insulin) is given as 5.4 fold. Moreover, the “kinetics of GLUT4 redistribution after insulin addition” value in assay [2] (CHO cells cultured in DME medium (25 mM glucose), 80 nM insulin) is “biphasic kinetics”. Also, the “kinetics of GLUT4 externalization after insulin addition” value in assay [2] (CHO cells cultured in F12 medium (10 mM glucose), 80 nM insulin) is recorded as “essentially monophasic response”. In addition, the “time of peak GLUT4 externalization after insulin addition” value in assay [2] (setting [4]) is recorded as “four to five”. Moreover, in assay [2] (setting [4]), the “time to steady state of cell-surface GLUT4 after insulin addition” value was “twenty”. In assay [2] (CHO cells in DMEM, 80 nM insulin, 5 minutes after addition), the “peak fold increase in the proportion of GLUT4 at the cell surface versus unstimulated cells” value came to 5.5 fold. Moreover, the “part of the peak increase in cell-surface GLUT4 eliminated in the subsequent decrease” value in assay [2] (CHO cells, several experiments) is given as 50% to 60%. Moreover, the “distribution of GFP fluorescence after insulin addition” value in assay [3] is on record as “redistribution of fluorescence to the plasma membrane”. The “proportion of GLUT4 at the cell surface in the presence of insulin” value in the assay on GLUT4 in adipocytes is recorded as “approximately 50%”.
